This is an account of results in patent publication US20250340603A1, “A METHOD FOR MODULATING PLANT ADAPTATION TRAITS” (CRAG (Centre de Recerca en Agrigenòmica), priority 2021, published 2025).

One assay relates to WT (Col-0) seedlings. Nature of the assay: BRZ220 treatment, hypocotyl elongation growth. Format: in vivo, Arabidopsis thaliana. The conditions noted are these: 1 μM BRZ220 in media, WT plants, 22° C. or 28° C., 6 d, LD. The protocol:
Pharmacological treatments were performed in plates adding hormones/drugs in the media. Chemicals used include; 1 μM BRZ220 (Gift from T. Nakano, RIKEN, Japan) or 50 μM Bikinin (200980, Sigma-Aldrich) for 6-d in control (long days, 22° C.) or high temperature (long days, 28° C.) conditions. Hypocotyl length were measured using the Image J software (v.1.48v) (https-/imagej.nih.gov/ij/). For hypocotyl elongation analysis, seedlings were grown in horizontally placed 0.5MS− media plates in controlled growth conditions (Aralab 600; long days 16:8h day/night cycle 60% relative humidity and 50-70 μmol m^−2 s^−1 of cool-white fluorescent light) at 22° C. or 28° C. temperature for 5-7d. Plates were photographed and hypocotyl length were measured using the ImageJ software (v.1.48v) (https:/imagej.nih.gov/ij/). For root growth analysis, seedlings were grown in vertically placed 0.5MS− media plates in controlled growth conditions (Aralab 600; long days 16:8h day/night cycle; 22° C.). MyROOT software (Betegón-Putzé et al., 2019) was used to compare root growth of plants. Lateral roots were manually counted under a stereozoom microscope in 9-d-old seedlings.

Assay [1] addresses T1, BRL3 (BRASSINOSTEROID RECEPTOR LIKE 3), full length, fused to a half of YFP (BiFC construct) (Arabidopsis thaliana, UniProt Q9LJF3 24-1164).
T1 construct: also called BRL3 receptor; AT3G13380; not shown: half of YFP (YN or YC, both directions tested) from vectors pGTQL1211-YN / pGTQL1221-YC
T1 sequence: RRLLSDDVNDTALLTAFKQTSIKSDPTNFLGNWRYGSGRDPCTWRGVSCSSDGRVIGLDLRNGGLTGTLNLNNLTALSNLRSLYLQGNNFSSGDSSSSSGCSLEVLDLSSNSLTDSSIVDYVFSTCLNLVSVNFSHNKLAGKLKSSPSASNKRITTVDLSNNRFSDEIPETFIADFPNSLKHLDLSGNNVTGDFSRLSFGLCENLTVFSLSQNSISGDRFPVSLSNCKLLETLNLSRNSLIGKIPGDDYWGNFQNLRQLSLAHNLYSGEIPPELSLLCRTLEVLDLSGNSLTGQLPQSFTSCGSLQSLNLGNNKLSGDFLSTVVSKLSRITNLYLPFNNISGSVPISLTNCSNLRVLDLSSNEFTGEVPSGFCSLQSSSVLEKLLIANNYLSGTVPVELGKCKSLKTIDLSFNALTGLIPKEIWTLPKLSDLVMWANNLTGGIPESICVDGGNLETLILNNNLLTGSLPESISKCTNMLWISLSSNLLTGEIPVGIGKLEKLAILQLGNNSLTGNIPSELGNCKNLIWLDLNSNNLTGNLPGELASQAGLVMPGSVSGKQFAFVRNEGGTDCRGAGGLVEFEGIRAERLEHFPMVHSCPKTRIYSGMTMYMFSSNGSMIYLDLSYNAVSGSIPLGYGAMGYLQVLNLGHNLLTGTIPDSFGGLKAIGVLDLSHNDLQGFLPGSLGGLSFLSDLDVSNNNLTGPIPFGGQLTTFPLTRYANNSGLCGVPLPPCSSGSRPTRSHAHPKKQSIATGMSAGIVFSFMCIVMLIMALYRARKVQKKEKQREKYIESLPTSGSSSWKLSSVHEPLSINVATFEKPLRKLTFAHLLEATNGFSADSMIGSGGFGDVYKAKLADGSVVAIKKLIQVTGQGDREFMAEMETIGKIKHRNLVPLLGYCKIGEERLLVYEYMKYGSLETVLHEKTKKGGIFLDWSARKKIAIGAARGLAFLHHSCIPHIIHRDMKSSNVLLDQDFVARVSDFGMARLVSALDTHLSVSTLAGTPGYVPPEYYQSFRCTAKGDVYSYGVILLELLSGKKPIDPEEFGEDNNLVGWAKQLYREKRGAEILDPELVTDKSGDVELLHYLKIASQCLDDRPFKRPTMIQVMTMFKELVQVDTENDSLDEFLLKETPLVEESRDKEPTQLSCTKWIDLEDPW
Nature of the assay: BiFC (split YFP) in Nicotiana benthamiana leaves, confocal microscopy.

For the molecule `CC(O)(c1ccccc1)C(Cc1ccc(Cl)cc1)n1cncn1` (centres unmarked) [BRZ220, Brassinazole], the hypocotyl size result in the assay with WT (Col-0) seedlings is “reduced hypocotyl size irrespective of the temperature”.

B1: BKI1, BiFC negative control (other, UniProt Q9FMZ0 1-337, looked up)
chain: METNLQQVKNSSQTFSEKQNPKQEASPSPISSTCSSPSHDFSFTISLQPLSSSSKHISPTLRSPSKTTSSYQQTDPFAVDLSPADEIFFHGHLLPLHLLSHLPVSPRTSTGSYNDGFTLPVKDILPDQPTNNNNNTENAITNISTEAKDDNTEDKAEGEIRVKTKPIKSFSLFGLSKWRKGFESNEREQEQQQQKIKKPMSLDLSHAVKKYIRMLFQKRGNGTQFWNRRQTSSYSFSSSLMGPNGNSKTMINGSYNKRDLIRGRRGELFSAPASMRTSPTNSGHLRVSTAGLSSSSGSTSSSSSDSTMEELQAAIQAAIAHCKNSSAVDRDDKVKDS
notes: whole, on cells; not shown: the construct of this control is not described
B1: the binding result in assay [1] is on record as “no binding”.
